Data published in article PMC8659006 (Molecules, 2021).
Values after ≈ are worked out from the molar mass of the structure shown. Like-named read-outs stand apart in the source and are kept apart here. Where no end group is shown, it is not given here.

Experiments:
S. aureus 1882 = assay type: cell-based, Staphylococcus aureus
Protocol: (§1) The reference strains P. aeruginosa 337005, S. aureus 1882 and ETEC K88 were cultivated at 37 °C for 12 h. […] Then, 180 µL MH broth per well were added to the microtiter plate (Corning, Corning, NY, USA), and then 2 µL of the diluted bacterial solution was dispensed into each well. Peptides were then serially diluted with Milli-Q water, and 20 µL dilutions were added to the wells. Then, 2 µL Milli-Q water instead of 2 µL diluted bacterial solution was used as a blank control, and 20 µL Milli-Q water instead of 20 µL peptide dilution was used as a growth control. After culturing for 12 h at 37 °C, the MIC of the reference strain was observed, and the experiment was performed in three independent replicates.

ETEC K88 [1] = assay: Thermal stability, antibacterial activity by inhibition zone; assay type: physicochemical, Enterotoxigenic Escherichia coli; settings: for Antimicrobial activity after heat treatment: n = 3
Protocol: (§2) ETEC K88 was used as a reference strain. […] The experiment was performed in three independent replicates.
(§3) The reference strain was ETEC K88.

P.aeruginosa 337005 = assay type: cell-based, Pseudomonas aeruginosa
Protocol: as §1

[2] = system: P. aeruginosa 337005, S. aureus 1882 and ETEC K88; assay type: cell-based
Protocol: as §1

human erythrocytes = settings: 90 µg/mL; cited from earlier work
Description: The low hemolytic activity of antimicrobial peptides on mammalian red blood cells is very important in clinical applications.

ETEC K88 [3] = assay: MIC, microbroth dilution; assay type: cell-based, Enterotoxigenic Escherichia coli; settings: micro-dilution in MH broth, 37 °C, 12 h, three independent replicates
Protocol: as §1

ETEC K88 [4] = assay: Inhibition zone, Kirby–Bauer diffusion method; assay type: cell-based, Enterotoxigenic Escherichia coli; settings: 50 µL on filter disk, 37 °C, 12 h, compared to PBS control and SUMO-TEV-CLP, n = 3
Protocol: as §2

ETEC K88 [5] = assay: Scanning electron microscopy of treated bacteria; assay type: cell-based, Enterotoxigenic Escherichia coli
Protocol: Scanning electron microscopy (SEM) was used to observe the damage of CLP to bacterial cell membranes. ETEC K88 was incubated at 37 °C for 12 h and then diluted with PBS to 5 × 10^5 CFU/mL. […] The CLP-treated ETEC K88 was washed with PBS and treated with 2.5% glutaraldehyde overnight. After dehydrating with alcohol and drying for gold coating, the samples were imaged by Quanta 200 (FEI).

ETEC K88 [6] = assay: Propidium iodide uptake (membrane permeabilization); assay type: cell-based, Enterotoxigenic Escherichia coli; settings: 100% = 0.05% SDS, average of 3 replicates
Protocol: PI can stain DNA, but cannot penetrate the complete cell membrane. Therefore, the fluorescence intensity of PI is positively correlated with the degree of cell membrane damage. The reference strain ETEC K88 was cultured at 37 °C for 12 h, and then diluted to 5 × 10^5 CFU/mL. Then, 10 µg/mL PI (Thermo Fisher, Waltham, MH, USA) was added to the diluted bacterial solution. […] The fluorescence intensity was measured using a microplate reader (Synergy H1, Bio Tek, Winooski, VT, USA) at the excitation wavelength and emission wavelength of 535 nm and 617 nm, respectively. During the continued 120 min reaction, the fluorescence values were monitored every 10 min. The PBS was a negative control, and 0.05% SDS was a positive control.

ETEC K88 [7] = assay: pH stability, antibacterial activity by inhibition zone; assay type: physicochemical, Enterotoxigenic Escherichia coli; settings: pH 4.0 to 9.0, 2 h, n = 3
Protocol: as §2, §3

[8] = range over P. aeruginosa 337005, S. aureus 1882, ETEC K88
[9] = micro-dilution in MH broth, 37 °C, 12 h, three independent replicates

KWKLFKKIIGKEFKRIVQRIKDFLRNLVPRTERKDVT [sCLP]
MIC (S. aureus 1882; 1882, 12 h): 8 µg/mL | Stability compared with recombinant CLP (ETEC K88 [1]; same temperature, pH value and enzyme treatment): almost the same stability | MIC (P.aeruginosa 337005; 337005, 12 h): 2 µg/mL

RKDVY [TP5]
MICs for all the three reference strains (range) [2, 8]: over 512 µg/mL

CC[C@H](C)[C@H](NC(=O)[C@H](CCCCN)NC(=O)[C@H](CCC(=O)O)NC(=O)[C@H](CCCCN)NC(=O)[C@H](CO)NC(=O)[C@H](CCCCN)NC(=O)[C@H](CCCNC(=N)N)NC(=O)[C@H](Cc1ccccc1)NC(=O)[C@H](Cc1ccccc1)NC(=O)[C@H](CC(=O)O)NC(=O)CNC(=O)[C@H](CC(C)C)NC(=O)[C@@H](N)CC(C)C)C(=O)NCC(=O)N[C@@H](CCCCN)C(=O)N[C@@H](CCC(=O)O)C(=O)N[C@@H](Cc1ccccc1)C(=O)N[C@@H](CCCCN)C(=O)N[C@@H](CCCNC(=N)N)C(=O)N[C@H](C(=O)N[C@H](C(=O)N[C@@H](CCC(N)=O)C(=O)N[C@@H](CCCNC(=N)N)C(=O)N[C@H](C(=O)N[C@@H](CCCCN)C(=O)N[C@@H](CC(=O)O)C(=O)N[C@@H](Cc1ccccc1)C(=O)N[C@@H](CC(C)C)C(=O)N[C@@H](CCCNC(=N)N)C(=O)N[C@@H](CC(N)=O)C(=O)N[C@@H](CC(C)C)C(=O)N[C@H](C(=O)N1CCC[C@H]1C(=O)N[C@@H](CCCNC(=N)N)C(=O)N[C@H](C(=O)N[C@@H](CCC(=O)O)C(=O)N[C@@H](CO)C(=O)O)[C@@H](C)O)C(C)C)[C@@H](C)CC)C(C)C)[C@@H](C)CC [LL37]
MIC (S. aureus 1882; [9]): 32 µg/mL (≈ 7.12 µM) | Hemolysis (human erythrocytes): about 30% | MIC (ETEC K88 [3]): 16 µg/mL (≈ 3.56 µM) | MIC (P.aeruginosa 337005; [9]): 32 µg/mL (≈ 7.12 µM) | MICs for all the three reference strains (range) [2, 8]: 16 to 32 µg/mL

KWKLFKKIIGKEFKRIVQRIKDFLRNLVPRTERKDVT [rCLP]
Inhibition zone against ETEC K88 (ETEC K88 [4]): significantly inhibited the growth | Membrane morphology by SEM (ETEC K88 [5]): damaged the integrity of the bacterial cell membrane | MIC (S. aureus 1882; 1882, 12 h): 8 µg/mL | Antimicrobial activity after heat treatment (ETEC K88 [1]; 70 °C for 30 min): almost completely retained | Antimicrobial activity after heat treatment (ETEC K88 [1]; temperatures above 70 °C (up to 100 °C), 30 min): significantly reduced the activity | MIC (P.aeruginosa 337005; 337005, 12 h): 2 µg/mL | Increase of PI fluorescence uptake (ETEC K88 [6]; 0.5 × MIC (1 µg/mL), 50 min): 16.0% | Increase of PI fluorescence uptake (ETEC K88 [6]; 0.5 × MIC (1 µg/mL), 120 min): 51.5% | Increase of PI fluorescence uptake (ETEC K88 [6]; 2 × MIC (4 µg/mL), 50 min): 83.3% | Increase of PI fluorescence uptake (ETEC K88 [6]; 2 × MIC (4 µg/mL), 120 min): 97.0% | Activity maintained throughout pH range (ETEC K88 [7]): more than 74.8% | MICs for all the three reference strains (range) ([2]; 12 h): 2 to 8 µg/mL
